Measured values from ChEMBL document CHEMBL1201862, “PubChem BioAssay data set” (2004).
Calls of active or inactive are those of the source.

Assays:
[1] = biological target: T1, Carboxy-terminal domain RNA polymerase II polypeptide A small phosphatase 1 (Homo sapiens, UniProt Q9GZU7); assay: CTDSP1 inhibitors, concentration-response, biochemical, absorbance readout, ultra-high-throughput screen actives (AID 540297); format: functional
T1 sequence (Q9GZU7 whole entry): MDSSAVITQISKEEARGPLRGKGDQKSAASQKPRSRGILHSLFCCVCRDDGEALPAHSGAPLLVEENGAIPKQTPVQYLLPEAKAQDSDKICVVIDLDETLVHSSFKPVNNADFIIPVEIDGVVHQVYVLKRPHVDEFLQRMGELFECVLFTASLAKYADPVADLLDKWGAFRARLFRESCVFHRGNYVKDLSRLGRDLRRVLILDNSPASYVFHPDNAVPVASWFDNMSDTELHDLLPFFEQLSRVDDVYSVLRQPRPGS

[2] = biological target: T2, Short transient receptor potential channel 4 (Mus musculus, UniProt Q9QUQ5); assay: calcium entry via TRPC4 opening agents – cell-based, HEK293 TRPC4/mu-opioid, Fluo-4 calcium, dose response (AID 434937); format: functional
T2 sequence (Q9QUQ5 whole entry): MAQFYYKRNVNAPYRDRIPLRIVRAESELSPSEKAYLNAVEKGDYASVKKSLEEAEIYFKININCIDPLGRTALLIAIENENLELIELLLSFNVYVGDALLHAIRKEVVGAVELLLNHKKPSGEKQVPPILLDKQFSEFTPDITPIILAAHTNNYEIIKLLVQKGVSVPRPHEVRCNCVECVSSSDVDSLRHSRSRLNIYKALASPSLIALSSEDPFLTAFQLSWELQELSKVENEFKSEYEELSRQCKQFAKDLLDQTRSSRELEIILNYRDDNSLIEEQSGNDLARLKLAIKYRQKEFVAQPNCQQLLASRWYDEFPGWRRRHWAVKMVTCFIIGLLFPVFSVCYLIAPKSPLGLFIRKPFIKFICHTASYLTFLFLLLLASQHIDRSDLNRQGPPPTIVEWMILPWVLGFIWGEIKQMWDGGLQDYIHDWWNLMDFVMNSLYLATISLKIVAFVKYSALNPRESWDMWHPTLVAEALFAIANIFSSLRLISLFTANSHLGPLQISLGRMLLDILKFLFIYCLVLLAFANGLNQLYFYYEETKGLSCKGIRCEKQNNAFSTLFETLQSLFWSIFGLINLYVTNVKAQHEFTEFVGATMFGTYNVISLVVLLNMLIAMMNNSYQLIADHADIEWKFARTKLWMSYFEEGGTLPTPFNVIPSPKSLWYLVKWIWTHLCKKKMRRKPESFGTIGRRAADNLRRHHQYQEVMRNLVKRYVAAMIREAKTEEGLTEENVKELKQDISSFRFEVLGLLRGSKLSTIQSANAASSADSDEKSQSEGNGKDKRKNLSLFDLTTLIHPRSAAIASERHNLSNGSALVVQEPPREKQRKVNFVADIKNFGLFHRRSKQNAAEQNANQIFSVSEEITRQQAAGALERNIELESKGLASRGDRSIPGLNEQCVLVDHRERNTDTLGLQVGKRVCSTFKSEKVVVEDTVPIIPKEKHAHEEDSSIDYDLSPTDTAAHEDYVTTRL

[3] = A cytotoxicity screen of small molecule inhibitors of the PhoP region in Salmonella typhi identified in the primary screen. [Related pubchem assays: 1850, 1864, 1985 ]; format: functional
[4] = biological target: T3, Heat shock factor protein 1 (Mus musculus, UniProt P38532); assay: decrease of HSF1-responsive luciferase luminescence – cell-based, NIH3T3, dose retest, confirmation (AID 2382); format: functional;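 further: NIH3T3 fibroblasts with HSF1-driven luciferase reporter stressed by proteasome inhibitor MG132; luminescence from HSF1-driven luciferase expression after 8 hours of MG132 stress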
T3 sequence (P38532 whole entry): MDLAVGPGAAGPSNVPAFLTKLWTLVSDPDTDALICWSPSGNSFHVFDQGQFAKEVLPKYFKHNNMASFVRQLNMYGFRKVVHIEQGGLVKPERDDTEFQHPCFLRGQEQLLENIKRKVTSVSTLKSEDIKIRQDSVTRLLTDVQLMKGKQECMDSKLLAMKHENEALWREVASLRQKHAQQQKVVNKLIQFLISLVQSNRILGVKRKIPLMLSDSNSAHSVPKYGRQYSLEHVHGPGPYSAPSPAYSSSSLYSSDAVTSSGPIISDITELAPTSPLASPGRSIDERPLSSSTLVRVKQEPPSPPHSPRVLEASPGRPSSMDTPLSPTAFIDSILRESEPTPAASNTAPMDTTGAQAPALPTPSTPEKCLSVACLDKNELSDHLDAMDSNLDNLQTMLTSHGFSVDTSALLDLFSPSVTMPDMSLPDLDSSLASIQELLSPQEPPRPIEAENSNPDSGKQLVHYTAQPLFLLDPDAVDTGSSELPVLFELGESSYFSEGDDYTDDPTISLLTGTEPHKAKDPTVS

Coagulation factor XII = biological target: T4, Coagulation factor XII (Homo sapiens, UniProt P00748); format: functional;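 further: activated factor XIIa alpha cleaving a fluorogenic AMC peptide substrate; inhibitor potency from loss of enzyme activity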
T4 sequence (P00748 whole entry): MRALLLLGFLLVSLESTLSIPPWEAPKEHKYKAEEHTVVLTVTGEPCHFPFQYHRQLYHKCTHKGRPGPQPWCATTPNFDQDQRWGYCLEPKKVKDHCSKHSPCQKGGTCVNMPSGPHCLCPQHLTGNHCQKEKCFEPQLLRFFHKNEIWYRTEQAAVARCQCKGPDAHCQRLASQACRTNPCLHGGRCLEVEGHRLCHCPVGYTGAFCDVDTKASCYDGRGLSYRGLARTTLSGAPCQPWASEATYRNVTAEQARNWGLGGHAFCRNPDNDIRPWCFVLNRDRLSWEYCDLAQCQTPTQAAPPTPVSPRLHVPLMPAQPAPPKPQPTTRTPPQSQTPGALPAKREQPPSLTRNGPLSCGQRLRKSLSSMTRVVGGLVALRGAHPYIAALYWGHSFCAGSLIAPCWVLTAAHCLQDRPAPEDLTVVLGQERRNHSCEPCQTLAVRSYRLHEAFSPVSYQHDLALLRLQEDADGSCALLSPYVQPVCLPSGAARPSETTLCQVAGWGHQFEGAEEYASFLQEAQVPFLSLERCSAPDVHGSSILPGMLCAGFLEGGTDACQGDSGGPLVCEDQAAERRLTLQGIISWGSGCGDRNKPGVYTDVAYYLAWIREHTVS

[5] = biological target: T5, Adenosylmethionine-8-amino-7-oxononanoate aminotransferase (Mycobacterium tuberculosis, UniProt P9WQ81); assay: Mycobacterium tuberculosis BioA enzyme inhibitor Measured in Biochemical System Using Plate Reader - 2163-02_Inhibitor_Dose_CherryPick_Activity.; format: functional, Mycobacterium tuberculosis UT205
T5 sequence (P9WQ81 whole entry): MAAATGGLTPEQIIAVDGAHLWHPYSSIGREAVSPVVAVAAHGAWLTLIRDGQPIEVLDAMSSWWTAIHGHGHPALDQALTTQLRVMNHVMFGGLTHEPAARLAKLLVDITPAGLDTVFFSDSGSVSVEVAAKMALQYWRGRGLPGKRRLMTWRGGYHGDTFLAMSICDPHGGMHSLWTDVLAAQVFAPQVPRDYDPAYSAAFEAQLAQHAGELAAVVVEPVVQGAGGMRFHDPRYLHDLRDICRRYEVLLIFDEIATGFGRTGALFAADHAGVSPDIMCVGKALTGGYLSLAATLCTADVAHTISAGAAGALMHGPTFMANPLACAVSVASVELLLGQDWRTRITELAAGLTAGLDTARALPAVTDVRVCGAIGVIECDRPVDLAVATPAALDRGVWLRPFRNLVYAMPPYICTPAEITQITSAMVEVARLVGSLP

Genome polyprotein = Genome polyprotein (dengue virus type 2, UniProt P29990); assay: flavivirus cap methylation enzyme inhibition – biochemical, confirmation dose response, primary screen (AID 588689); format: functional
[6] = DRD fibroblast viability loss – cell-based, non-viral oncogenic, luminescence, dose response (AID 1934); format: functional; settings: Homo sapiens
[7] = HEK-293T viability loss after treatment – luminescence, T-cell screen hits, cytotoxicity control for TCR NF-kB inhibitor project, dose response (AID 489026); format: functional, cell-based;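 further: cells exposed to compound about 14 hours before the viability readout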
BJ [8] = assay: BJ-TERT-LT-ST fibroblast viability loss – cell-based, RAS-independent, luminescence, dose response (AID 1935); format: functional; settings: Homo sapiens;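 further: BJ fibroblasts immortalized with TERT plus LT and ST oncogenes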
BJ [9] = assay: cells; format: functional, cell-based; settings: Homo sapiens
BJ [10] = assay: BJ-TERT fibroblast viability loss – cell-based, RAS-independent, luminescence, dose response (AID 1933); format: functional; settings: Homo sapiens
Protein skinhead-1 = biological target: T6, Protein skinhead-1 (Caenorhabditis elegans, UniProt P34707); format: functional
T6 sequence (P34707 whole entry): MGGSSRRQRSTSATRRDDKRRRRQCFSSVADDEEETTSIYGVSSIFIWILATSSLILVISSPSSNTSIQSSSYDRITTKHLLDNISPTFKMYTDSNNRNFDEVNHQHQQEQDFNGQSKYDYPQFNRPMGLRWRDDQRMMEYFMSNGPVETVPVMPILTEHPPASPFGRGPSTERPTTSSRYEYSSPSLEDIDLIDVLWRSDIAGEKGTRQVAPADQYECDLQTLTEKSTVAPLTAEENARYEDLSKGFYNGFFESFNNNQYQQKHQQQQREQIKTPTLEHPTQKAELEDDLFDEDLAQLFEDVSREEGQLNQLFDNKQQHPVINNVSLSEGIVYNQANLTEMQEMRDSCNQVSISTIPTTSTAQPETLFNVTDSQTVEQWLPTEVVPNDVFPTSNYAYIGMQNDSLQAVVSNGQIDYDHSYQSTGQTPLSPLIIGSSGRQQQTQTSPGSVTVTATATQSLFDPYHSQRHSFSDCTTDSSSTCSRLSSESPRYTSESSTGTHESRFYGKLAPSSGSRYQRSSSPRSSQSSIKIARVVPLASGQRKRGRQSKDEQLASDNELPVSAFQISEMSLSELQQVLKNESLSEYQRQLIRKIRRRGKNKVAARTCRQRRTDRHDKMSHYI

Cytochrome P450 3A4 = Cytochrome P450 3A4 (Homo sapiens, UniProt P08684); settings: Potency;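 further: confirmatory qHTS run detecting inhibitors and substrates of CYP3A4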
Chain of Cytochrome P450 3A4 (P08684 whole entry): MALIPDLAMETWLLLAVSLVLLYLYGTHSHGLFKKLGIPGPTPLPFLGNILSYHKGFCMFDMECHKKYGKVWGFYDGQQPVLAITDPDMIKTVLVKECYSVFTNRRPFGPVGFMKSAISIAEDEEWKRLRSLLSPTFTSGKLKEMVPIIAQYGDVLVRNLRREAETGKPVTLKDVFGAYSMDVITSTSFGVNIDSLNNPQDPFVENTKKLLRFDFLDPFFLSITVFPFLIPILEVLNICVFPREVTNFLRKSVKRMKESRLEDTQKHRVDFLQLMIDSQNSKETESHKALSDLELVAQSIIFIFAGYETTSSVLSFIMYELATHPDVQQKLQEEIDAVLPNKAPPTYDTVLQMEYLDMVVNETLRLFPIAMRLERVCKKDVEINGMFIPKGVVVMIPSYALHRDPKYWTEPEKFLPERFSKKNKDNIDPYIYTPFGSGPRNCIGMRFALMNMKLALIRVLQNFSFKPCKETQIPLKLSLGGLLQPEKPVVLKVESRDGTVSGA

Chain of Genome polyprotein (P29990 2492-3391 limits assumed): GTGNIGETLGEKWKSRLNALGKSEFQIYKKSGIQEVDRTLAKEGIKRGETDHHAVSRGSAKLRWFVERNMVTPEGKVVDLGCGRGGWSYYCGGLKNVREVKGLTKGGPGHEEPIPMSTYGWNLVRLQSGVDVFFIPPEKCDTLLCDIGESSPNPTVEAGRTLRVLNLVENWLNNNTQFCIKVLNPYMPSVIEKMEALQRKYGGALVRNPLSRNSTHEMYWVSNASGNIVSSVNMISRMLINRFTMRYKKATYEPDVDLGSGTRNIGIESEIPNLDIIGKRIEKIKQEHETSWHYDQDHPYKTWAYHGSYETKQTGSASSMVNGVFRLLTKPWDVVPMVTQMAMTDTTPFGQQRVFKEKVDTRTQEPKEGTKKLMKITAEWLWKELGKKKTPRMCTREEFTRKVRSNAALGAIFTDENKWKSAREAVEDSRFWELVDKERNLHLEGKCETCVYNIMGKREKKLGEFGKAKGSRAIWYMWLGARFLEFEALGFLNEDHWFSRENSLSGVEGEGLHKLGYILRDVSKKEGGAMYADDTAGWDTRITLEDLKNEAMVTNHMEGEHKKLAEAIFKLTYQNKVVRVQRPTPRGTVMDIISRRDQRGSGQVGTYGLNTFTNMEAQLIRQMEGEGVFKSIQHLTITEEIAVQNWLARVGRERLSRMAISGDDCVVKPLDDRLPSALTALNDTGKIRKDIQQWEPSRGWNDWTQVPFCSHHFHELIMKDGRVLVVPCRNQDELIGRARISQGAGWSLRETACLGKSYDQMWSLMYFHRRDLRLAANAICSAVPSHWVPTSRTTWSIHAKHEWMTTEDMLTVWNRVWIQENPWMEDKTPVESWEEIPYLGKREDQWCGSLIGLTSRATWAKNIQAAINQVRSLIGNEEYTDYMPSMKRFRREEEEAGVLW

Q: Which IC50 [1] does the source give for Cc1cc(Cl)c(S(=O)(=O)NC(C(=O)O)c2ccccc2)cc1OCC(N)=O (centres undefined) here?
A: 12.9 µM (active)

Q: Which results are given for CC(c1cccnc1)N(CCN(C)C)C(=O)Nc1ccc(Cl)c(Cl)c1 (centres undefined)?
A: EC50 [2]: 1.5 µM (active); EC50 [3]: > 50 µM (active)

Q: Which results are given for CC1=C(C(=O)Nc2ccc(C)cc2)C(c2ccc(C)o2)C2=C(O)CC(C)(C)CC2=N1 (centres undefined)?
A: EC50 [4]: > 195 µM (not active); IC50 (Coagulation factor XII): > 50 µM (inactive)

Q: Which AC50 [5] does the source give for CCc1c(C)nc2ncnn2c1Nc1ccc(C#N)c(Cl)c1 here?
A: 10.5 µM (active)

Q: Which IC50 (Coagulation factor XII) does the source give for COC(=O)C(NC(=O)c1ccco1)(Nc1nc(C)cs1)C(F)(F)F (centres undefined) here?
A: > 50 µM (inactive)

Q: With CCOc1cc(/C=N/NC2=NC(=O)C(CC(=O)O)S2)ccc1OCc1ccc(Cl)cc1 (centres undefined) as the molecule, how does the IC50 (Genome polyprotein) read?
A: 47.9 µM (active)

Q: What about the IC50 [1] of the same molecule?
A: 7.12 µM (active)

Q: Which IC50 (Coagulation factor XII) does the source give for COC(=O)c1ccc(Oc2nc(NC(C)C)nc(SC)n2)cc1 here?
A: > 50 µM (inactive)

Q: For Cc1cccc(-c2ccc3c(c2)C2CC3CCN2)c1 (centres undefined), which AC50 [5] is on record?
A: 4.64 µM (active)

Q: With O=C(O)c1ccc(COc2ccccc2/C=C2\NC(=O)N(Cc3ccc(F)cc3)C2=O)cc1 as the molecule, how does the IC50 [1] read?
A: 6.42 µM (active)

Q: Which results are given for O=C(c1ccc(Cl)cc1)c1cc([N+](=O)[O-])ccc1N1CCOCC1?
A: EC50 [6]: 1.17 µM (active); IC50 [7]: > 80 µM (inactive); EC50 (BJ [8]): 1.19 µM (inconclusive); EC50 (BJ [9]): 19 µM (active); EC50 (BJ [10]): 1.51 µM (active); IC50 (Protein skinhead-1): 56.9 µM (inactive)

Q: For COCCN(CCOC)c1nc(C)nc2c1nc(-c1ccccc1)n2CC1CCN(C)CC1, which AC50 (Cytochrome P450 3A4) is on record?
A: 15.8 µM (inconclusive)
